Measured values as given in publication PMC3650558, “A Yeast Chemical Genetic Screen Identifies Inhibitors of Human Telomerase” (Chemistry & Biology, 2013).
“Also recorded” adds a separate entry of the source.

Assays:
[1] = tested on: W303-1a cells expressing Cdc13-hTERT-FLAG + hTR (active human telomerase); experiment: Yeast growth rescue screen (time to reach OD595 of 0.62 relative to DMSO); type: cell-based, S. cerevisiae; details: for Z Score: z = (x − μ)/σ of normalized time difference over all compounds in the bioactive library
Experimental: These 678 compounds were selected from a 50,000 member Maybridge library based upon a spectrum of growth inhibitory bioactivity in a drug pump-deficient yeast strain ([Ishizaki et al., 2010]). […] In each 96-well assay plate, growth of the query strain in the presence of compound (20 μM), beginning at the onset of the experimental growth phase (i.e., time course 2, from 43 hr onward), was normalized against DMSO treatment (Figures 2C and 2D; Figures S2D and S2E).
To conduct the HTS (Figure 2A), 98 μl (3 × 10^5 cells per milliliter) was dispensed into 96-well clear flat-bottomed microplates (Corning Costar) using a Biomek FX (Beckman Coulter). A small molecule bioactive library of 678 compounds was utilized for the screen, consisting of compounds selected from the Maybridge collection (Thermo Fisher Scientific). […] DMSO at 2% (v/v) and 20 μM cycloheximide (Sigma) final concentration were added as controls to each assay plate, into alternate wells in columns 1 and 12 using the Span 8 module of the Biomek FX. Nine plates were analyzed, 80 compounds per plate, with 16 wells for controls. After compound addition, the plates were sealed and followed for time course 1 (up to 39 hr) on a Sunrise plate reader (Tecan) at absorbance 595 nm, maintained at 30°C and shaking at 564 rpm. After time course 1, cells in assay plates were diluted to 3 × 10^5 cells per milliliter in fresh media containing galactose using the Biomek FX. The plates were preincubated in galactose-containing media at 30°C for 3 hr (to allow a period of recovery from the stationary phase in the absence of compound), 2 μl of each compound or control was added to plates as described earlier, returned to the plate readers, and followed for time course 2 (up to 86 hr), for a total of ∼128 elapsed hours.
Growth curves were analyzed using a growth curve analysis tool implemented in R. After smoothing of growth curves, the time required for cells induced with human telomerase to reach an OD595 of 0.62 in the presence of each compound during time course 2 was derived using a data-based approach ([Warringer and Blomberg, 2003]). The time to reach an OD595 of 0.62 for each compound was normalized to the average DMSO value from each assay plate (to arrive at a normalized value, x, for each compound) and used to generate heatmaps as shown in Figure 2C. Z scores were calculated based on the equation: z = (x − μ)/σ, where μ is the mean time difference for all compounds in the bioactive library and σ is the SD for all compounds in the bioactive library.

[2] = target: T1, purified recombinant human telomerase (Homo sapiens, UniProt O14746); experiment: Telomerase repeat amplification protocol (TRAP) assay, purified enzyme; type: biochemical; details: 200, 100, 20, 10 or 2 μM; 15 min preincubation
T1 construct: made in house
T1 sequence (O14746 whole entry): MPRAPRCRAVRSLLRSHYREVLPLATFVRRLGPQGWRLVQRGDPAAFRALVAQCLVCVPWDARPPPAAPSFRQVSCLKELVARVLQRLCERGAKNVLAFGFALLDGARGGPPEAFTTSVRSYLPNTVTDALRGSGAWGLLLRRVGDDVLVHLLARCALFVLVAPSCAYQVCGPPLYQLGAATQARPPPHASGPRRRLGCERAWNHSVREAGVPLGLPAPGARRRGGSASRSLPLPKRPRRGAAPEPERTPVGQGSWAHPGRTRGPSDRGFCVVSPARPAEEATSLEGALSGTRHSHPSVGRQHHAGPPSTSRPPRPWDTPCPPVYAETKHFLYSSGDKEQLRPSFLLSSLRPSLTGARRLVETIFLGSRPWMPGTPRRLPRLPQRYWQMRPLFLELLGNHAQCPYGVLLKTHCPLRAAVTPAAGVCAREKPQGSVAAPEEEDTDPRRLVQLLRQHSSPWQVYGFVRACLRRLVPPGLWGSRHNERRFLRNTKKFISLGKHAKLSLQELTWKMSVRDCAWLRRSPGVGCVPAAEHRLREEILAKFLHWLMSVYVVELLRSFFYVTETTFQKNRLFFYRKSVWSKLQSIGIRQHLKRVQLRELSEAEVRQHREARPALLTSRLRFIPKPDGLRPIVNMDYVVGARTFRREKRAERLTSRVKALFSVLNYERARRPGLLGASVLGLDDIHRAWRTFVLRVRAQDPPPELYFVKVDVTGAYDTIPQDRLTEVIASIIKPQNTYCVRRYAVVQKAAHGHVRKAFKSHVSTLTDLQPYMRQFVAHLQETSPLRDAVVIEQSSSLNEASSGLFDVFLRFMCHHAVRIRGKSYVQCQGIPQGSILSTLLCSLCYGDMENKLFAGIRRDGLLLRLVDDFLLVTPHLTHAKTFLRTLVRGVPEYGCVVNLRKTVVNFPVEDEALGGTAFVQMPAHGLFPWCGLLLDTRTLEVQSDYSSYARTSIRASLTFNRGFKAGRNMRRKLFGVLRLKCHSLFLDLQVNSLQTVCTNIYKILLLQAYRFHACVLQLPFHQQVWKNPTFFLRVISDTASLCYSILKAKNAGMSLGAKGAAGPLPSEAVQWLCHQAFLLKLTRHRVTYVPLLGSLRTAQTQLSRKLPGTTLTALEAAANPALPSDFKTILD
Experimental: Figure 3 Assessment of Human Telomerase Inhibition In Vitro (A) Chemical structures of BIBR1532 and hit compounds SEW05920, SPB03924, and CD11359. (B) Representative gel of the telomerase repeat addition protocol (TRAPeze, Millipore) after addition of RJC00417, SEW05920, SPB03922, and RH00646 to recombinant human telomerase purified in vitro ([Beattie et al., 1998]; [Oulton and Harrington, 2004]) (n = 3). Lanes 1–5, treatment with 200, 100, 20, 10, or 2 μM RJC00417; lanes 6–10, treatment with 200, 100, 20, 10, or 2 μM SEW05920; lanes 11–15, treatment with 200, 100, 20, 10, or 2 μM SPB03922; lanes 16–20, treatment with 200, 100, 20, 10, or 2 μM RH00646; lane 21, treatment with 2% v/v DMSO; lane 22, pretreatment with ribonuclease A. IC; internal PCR control (36 base pairs [bp]). (C) Representative gel of the relative telomerase activity (RTA) by ELISA-TRAP (TeloTAGGG Telomerase PCR ELISA-PLUS, Roche Diagnostics) of purified human telomerase upon incubation with BIBR1532 (lanes 1–4), SEW05920 (lanes 5–8), SPB03924 (lanes 11–14), CD11359 (lanes 15–18) (concentration indicated in micromolar), 2% v/v DMSO (lane 9), or heat (lane 10). IC; internal PCR control (216 bp). (D) Levels of RTA (%) after normalization to a 216 bp internal control, as shown in (C). Error bars indicate SD, n = 3. For synthesis of BIBR1532, see Figure S2.
As a control, we observed no inhibition of the Taq polymerase used for amplification of telomerase extension products in the TRAP (data not shown). […]
From the high-throughput analysis, 51 compounds with a neutral effect or that rescued the growth of strains expressing active human telomerase (relative to DMSO) were picked from the master HTS plates and re-analyzed (Figure 2C, and data not shown). […]
(§1) Telomerase activity was assessed using the Telomere Repeat Amplification Protocol (TRAPeze, Millipore) or ELISA-TRAP (TeloTAGGG Telomerase PCR ELISA-PLUS, Roche Diagnostics) following manufacturers’ instructions. […]

[3] = target: T2, telomerase activity in crude HeLa cell extracts (Homo sapiens, UniProt O14746); experiment: TRAP assay in crude HeLa cell extracts; type: biochemical
T2 construct: telomerase activity in crude HeLa cell extracts; endogenous in cells; host or cells: HeLa
T2 sequence (O14746 whole entry): as above
T2 sequence (O60832 whole entry partner): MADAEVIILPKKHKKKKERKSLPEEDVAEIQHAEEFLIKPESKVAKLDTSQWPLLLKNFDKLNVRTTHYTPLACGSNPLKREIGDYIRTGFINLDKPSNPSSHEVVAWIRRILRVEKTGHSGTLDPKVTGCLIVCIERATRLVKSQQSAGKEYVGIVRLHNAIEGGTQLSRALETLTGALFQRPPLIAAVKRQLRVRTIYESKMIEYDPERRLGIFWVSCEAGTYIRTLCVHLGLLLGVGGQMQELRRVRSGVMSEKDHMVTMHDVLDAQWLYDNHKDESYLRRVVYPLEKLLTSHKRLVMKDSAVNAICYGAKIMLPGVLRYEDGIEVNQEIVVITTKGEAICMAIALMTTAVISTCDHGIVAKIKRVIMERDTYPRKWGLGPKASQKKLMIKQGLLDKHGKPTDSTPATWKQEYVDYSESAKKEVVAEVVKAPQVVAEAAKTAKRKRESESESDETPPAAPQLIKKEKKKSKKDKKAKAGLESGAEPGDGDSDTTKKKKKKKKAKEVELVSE
T2 sequence (Q9NPE3 whole entry partner): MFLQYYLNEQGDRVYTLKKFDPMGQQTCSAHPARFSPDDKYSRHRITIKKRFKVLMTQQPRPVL
T2 sequence (Q9NX24 whole entry partner): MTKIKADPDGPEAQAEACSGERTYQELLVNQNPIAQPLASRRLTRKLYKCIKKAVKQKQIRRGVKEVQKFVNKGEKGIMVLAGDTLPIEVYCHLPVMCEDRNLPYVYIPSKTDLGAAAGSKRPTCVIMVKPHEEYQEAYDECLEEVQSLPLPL
T2 sequence (Q9NY12 whole entry partner): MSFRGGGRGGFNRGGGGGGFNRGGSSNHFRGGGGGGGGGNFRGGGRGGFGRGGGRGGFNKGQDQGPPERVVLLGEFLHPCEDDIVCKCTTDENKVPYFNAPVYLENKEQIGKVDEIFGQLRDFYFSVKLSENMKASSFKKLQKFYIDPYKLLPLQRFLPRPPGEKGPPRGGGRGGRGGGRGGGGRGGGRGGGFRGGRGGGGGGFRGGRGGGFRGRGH
T2 sequence (Q9BUR4 whole entry partner): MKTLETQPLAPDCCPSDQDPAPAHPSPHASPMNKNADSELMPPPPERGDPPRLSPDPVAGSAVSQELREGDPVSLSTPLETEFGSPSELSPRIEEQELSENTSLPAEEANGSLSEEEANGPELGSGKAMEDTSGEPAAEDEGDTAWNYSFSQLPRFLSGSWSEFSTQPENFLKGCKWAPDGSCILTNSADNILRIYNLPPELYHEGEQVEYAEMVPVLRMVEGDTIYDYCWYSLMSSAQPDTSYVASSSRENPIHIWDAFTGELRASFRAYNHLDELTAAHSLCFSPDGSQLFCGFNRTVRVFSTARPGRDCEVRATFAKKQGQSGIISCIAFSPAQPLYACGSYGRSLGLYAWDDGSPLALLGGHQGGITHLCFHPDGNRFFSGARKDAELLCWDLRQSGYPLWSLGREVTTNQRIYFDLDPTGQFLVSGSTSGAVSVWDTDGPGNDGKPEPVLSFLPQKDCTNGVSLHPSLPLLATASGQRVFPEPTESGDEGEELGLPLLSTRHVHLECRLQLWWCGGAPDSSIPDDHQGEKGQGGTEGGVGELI
Experimental: As a control, we observed no inhibition of the Taq polymerase used for amplification of telomerase extension products in the TRAP (data not shown). In addition, as negative controls, two other compounds that were not identified as hits (SPB03922 and RH00646) were tested and confirmed to exert no effect upon telomerase activity in vitro (Figure 3B). Using a semiquantitative assay for the detection of telomerase elongation products (ELISA-TRAP) the in vitro half maximal inhibitory concentration (IC50) values of the compounds fell between 1 and 6.5 μM (Figures 3C and 3D). Similar IC50 values were also observed against purified recombinant murine telomerase (data not shown). These values are higher than that of BIBR1532 (IC50 = 0.1 μM) ([Damm et al., 2001]; [Pascolo et al., 2002]) but within a concentration range typical of first hits from commercial libraries. SEW05920, SPB03924, and CD11359 are heteroaromatic small molecules that differ structurally from BIBR1532 (Figures 3A and S2F).
Supplemental Experimental Procedures
Follow-up analysis of compounds identified in HTS
From the high-throughput analysis, 51 compounds with a neutral effect or that rescued the growth of strains expressing active human telomerase (relative to DMSO) were picked from the master HTS plates and re-analyzed (Figure 2C, and data not shown). These compounds were tested on a control strain, W303-1a expressing hTR and Cdc13-hTERT lacking the Cdc13 DBD, and 7 compounds were excluded from further analysis because they elicited a non-specific growth delay of the control strain. The remaining 44 compounds were subjected to secondary screens against the query strain expressing active human telomerase (n=2). Based on these results, twenty-eight compounds were purchased for further verification against the control and […]
as §1

W303-1a control strains = experiment: Growth of control yeast strains; type: cell-based, S. cerevisiae; details: W303-1a cells alone; 500, 150, 50, 10 or 1 μM
[4] = target: purified human telomerase; design: method as in Damm et al., 2001; Pascolo et al., 2002; details: human telomerase in vitro; ref Damm et al., 2001; Pascolo et al., 2002; cited from earlier work
pdr1DBD-cyc8 strain = experiment: Growth of hyperpermeable yeast strain; details: 0.03-1 μM, irrespective of human telomerase expression status

Question: Which “Time (hr) Difference at an OD595 of 0.62 Relative to DMSO” value ([1]; compound 20 μM, time course 2, growth rescue of strain expressing active human telomerase) does the source give for Cc1cc(C(=O)O/N=C(\N)CSc2ncccc2C(F)(F)F)no1 [SPB03924] here?
Answer: The value was 12 h.

Question: What about the “Z Score” value [1] of the same molecule?
Answer: The value was 2.3.

Question: What about the “inhibition of purified recombinant human telomerase (TRAP)” value [2] of the same molecule?
Answer: Its value is “dose-dependent inhibition”.

Question: And the “inhibition of telomerase activity in crude HeLa cell extracts (TRAP)” value (“inhibition of telomerase activity” below) [3]?
Answer: Its value is “dose-dependent inhibition”.

Question: Which “effect upon growth of yeast expressing human telomerase” value ([1]; 500, 150, 50, 10 or 1 μM) does the source give for C/C(=C\C(=O)Nc1ccccc1C(=O)O)c1ccc2ccccc2c1 [BIBR1532, 2-[(E)-3-naphthalen-2-yl-but-2-enoylamino]-benzoic acid] here?
Answer: Its value is “had no effect”.

Question: What about the “effect upon growth of control strains” value (W303-1a control strains) of the same molecule?
Answer: The value was “had no effect”.

Question: What about the IC50 [4] of the same molecule?
Answer: Its IC50 is 100 nM.

Question: And the “toxicity in hyperpermeable strain pdr1DBD-cyc8” value (pdr1DBD-cyc8 strain)?
Answer: The value was “toxic; also recorded: cytotoxic across most concentrations”.

Question: For N=C(N)Nc1nc(-c2cc(Cl)sc2Cl)cs1 [CD11359], which “Z Score” value [1] is on record?
Answer: The value was 1.7.

Question: And the “inhibition of purified recombinant human telomerase (TRAP)” value [2]?
Answer: The value was “dose-dependent inhibition”.

Question: And the “inhibition of telomerase activity” value [3]?
Answer: Its value is “dose-dependent inhibition”.

Question: With Cc1ccc(S(=O)(=O)NC(=O)Nc2ccc(Sc3ccccc3)nc2Sc2ccccc2)cc1 [SEW05920] as the molecule, how does the “growth recovery in follow-up screens” value ([1]; follow-up subscreens, re-plated from master HTS plate and repurchased compound) read?
Answer: Its value is about 8 h.

Question: What about the “growth recovery in the initial HTS” value ([1]; initial HTS, 20 μM) of the same molecule?
Answer: The value was “did not exhibit significant growth recovery”.

Question: What about the “Z Score” value [1] of the same molecule?
Answer: The value was 1.7.

Question: And the “inhibition of purified recombinant human telomerase (TRAP)” value [2]?
Answer: The value was “inhibited telomerase activity in vitro; also recorded: dose-dependent inhibition”.

Question: What about the “inhibition of telomerase activity” value [3] of the same molecule?
Answer: The value was “dose-dependent inhibition”.
